Test results: patent publication US12644203B2, “Cellular phenotype screening method” (ThinkCyte, Inc., priority 2020, dated 2026)

Key:
Type in all cases: cell-based
[1] = tested on: nuclear localization of NF-κB induced by LPS in THP1 cells; experiment: Cellular phenotype screening in a 96-well microplate: imaging cell sorter sorting, then enrichment of first barcode nucleic acid sequences; details: sorted for absence of NF-κB nuclear localization under LPS stimulation; value above 1 = more concentrated than before sorting; TAK242 at 30 μM; FIG. 21
Method: In accordance with the schematic diagram illustrated in FIG. 18, a search was carried out for test targets which cause a desired phenotypic change (in the example of FIG. 18, test substances which inhibit nuclear localization of NF-κB induced by LPS).
Specifically, in each well of a 96-well microplate, the first barcode nucleic acids were attached to cells (THP1 cells) according to the method described in Reference Example 1 and further brought into contact with test substances. At this time, different types and concentrations of the test substance and different types of the first barcode nucleic acids were used in each well. Due to this, 96 types of test targets (24 types of test substances×4 types of concentrations) were associated with 96 types of first barcode nucleic acids which are attached to the cells (THP1 cells). […]
Next, in the same manner as the examples described above, a single cell analysis was performed on the cell mixture solution sorted and recovered by the imaging cell sorter. Specifically, when reading out the DNA barcodes modifying each cell and cell-derived genetic information, the Chromium Controller apparatus and the Single Cell 3′ Reagent Kit v3 manufactured by 10× Genomics, which is a single cell analysis technology using a droplet technique as in Example 5 and Example 6, were used. […]

[2] = tested on: nuclear localization of NF-κB in THP1 cells; experiment: Nuclear localization score of sorted cells by image flow cytometry; details: cells treated with LPS and test substance (TAK242 30 μM); higher value indicates higher degree of nuclear localization; FIG. 22
Method: The photographic images of the cells were captured by an image flow cytometry and the nuclear localization scores were also calculated by the imaging flow cytometry. Regarding the nuclear localization scores, a higher value indicates a higher degree of nuclear localization.

[3] = tested on: NFκB protein nuclear localization in THP1 cells; experiment: NFκB protein localization by immunostaining and fluorescent light microscope in cells treated with the drug; details: LPS 2 μg/mL, 2 hours at 37 degrees, fluorescent light microscope, FIG. 7
Method: Next, cells collected by centrifugation in advance were added to the tube 1 and incubated. The cells used at this time were THP1 cells and the cell concentration was set to 1×10^7 cells/mL. The incubation was carried out for 5 minutes at room temperature.
Cells were resuspended in RPM1-1640 medium with 10% FBS and 50 μM 2-mercaptoethanol in the tube 1 and the tube 2, respectively. Next, as a drug, lipopolysaccharide (LPS) suspended in dimethyl sulfoxide (DMSO) was added to tube 1 only, at a final concentration of 2 μg/mL. In the tube 2, only DMSO, the solvent for the drug, was added. Next, the tube 1 and the tube 2 were incubated for 2 hours at 37 degrees in CO2, respectively. Through the experiment up to here, the drug condition whether the drug LPS is present or not, was respectively associated to each of the cells by corresponding each cell to the first barcode nucleic acid type A or the second barcode nucleic acid type B.
Next, some cells were collected from the tube 1 and the tube 2, respectively. […]

| Molecule | enrichment level of the first barcode nucleic acid sequence of the sorted cells [1] | nuclear localization score [2] | localization of NFκB protein [3] |
| --- | --- | --- | --- |
| C=C1C(=O)O[C@@H]2/C=C(\C)CC/C=C(\C)CC[C@@H]12 [Costunolide] | significantly enriched | 0.23 |  |
| CCOC(=O)C1=CCCC[C@H]1S(=O)(=O)Nc1ccc(F)cc1Cl [TAK242] | approximately 1.5 fold | 0.92 |  |
| lipopolysaccharide [LPS] |  | 0.30 | almost all of the NFκB protein was localized in the nucleus |
